Values of other authors, collected in patent US20070162983A1, “Diagnostic and therapeutic use of the human sgpl1 gene and protein for neurodegenerative diseases” (Evotec NeuroSciences GmbH, priority 2003, published 2007).

Legend:
[1] = dogs, estimated (Tosaka et al., Stroke 2001)
SGPL1 = conditions: known specific inhibitors of SGPL1 activity; for IC50: read-out: IC50, inhibition of SGPL1 activity

CCCCCCCCCCCCC/C=C/[C@@H](O)[C@@H](N)COP(=O)(O)O [S1P, sphingosine-1-phosphate]
half-life in cerebrospinal fluid (CSF) [1]: approximately 10 minutes

CCCC[C@H](C)[C@H](O)[C@H](O)C[C@H](C)C[C@@H](O)CCCC[C@@H](O)C[C@H](O)[C@H](C)N
IC50 (SGPL1): 20 µM

CCCCCCCCCCCCCCC[C@H](O)[C@@H](N)COP(=O)(O)O (single isomer, unassigned) [2D,3L-isomer of sphinganine phosphate]
Ki (SGPL1; read-out: Ki, inhibition of SGPL1 activity): 9.7 µM

2-vinyl analog of sphinganine phosphate
IC50 (SGPL1): 2.4 µM
